Key:
Bfl-1 = biological target: T1, Bfl-1 (Homo sapiens, UniProt Q16548); assay: Bfl-1 fluorescence polarization assay (FPA/FP), competition with FITC-Bid BH3 peptide; assay type: binding; settings: for Bfl-1 FP assay, activity in words: Bfl-1/FITC-Bid
T1 construct: lacking their C-terminal transmembrane domains (approximately last 20 amino-acids); made in house; host or cells: XL-1 Blue cells (E. coli), pGEX 4T-1
T1 sequence (Q16548 1-155 limits assumed): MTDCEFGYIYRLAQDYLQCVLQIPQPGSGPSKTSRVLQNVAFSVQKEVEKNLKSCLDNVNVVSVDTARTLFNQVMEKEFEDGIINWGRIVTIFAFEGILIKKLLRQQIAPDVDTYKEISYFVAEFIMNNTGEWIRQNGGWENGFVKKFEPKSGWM
Experimental: Fluorescence polarization assays (FPA). To determine the binding affinity of anti-apoptotic Bcl-2 polypeptides to FITC-conjugated Bid BH3 peptide, fluorescence polarization assays (FPAs) were performed according to published procedures (Zhai et al., Biochem. J. 376:229-236 (2003)). […] Fluorescence polarization was measured after 10 min using an Analyst™ AD Assay Detection System (LJL Biosystem, Sunnyvale, Calif.) in phosphate-buffered saline (PBS) (pH 7.4). The IC50 determinations were performed using GraphPad Prism software (GraphPad, Inc., San Diego, Calif.).
Competition assays. Using the same procedure outlined above, 100 nM of GST-Bfl-1 protein were incubated with the compounds at 50 μM concentration for 30 min. Then, 5 nM of FITC-Bid BH3 peptide was added. Fluorescence polarization was measured after 10 min. […]

Solubility = settings: aqueous buffer
Experimental: Compounds were screened for inhibitory activity of Bfl-1 essentially as described in Example 1, and including a 1 h incubation of Bfl-1 in the presence of compounds and a 4 h incubation after the subsequent addition of the fluorescent probe. […] The assay was screened against the entire NIH small molecule library, which at the time consisted of 65,000 compounds. […] Controls included an “artifact” plate on which a GAPDH assay was performed to check selectivity, and a solubility plate on which a solubility assay was performed to test solubility.

Microsomal stability = assay type: in vitro ADME; settings: rat liver microsomes, 37.5° C.
Experimental: CID-779754 (MLS-0067130) has a metabolic half life of >60 min in the presence of rat liver microsomes when incubated at 37.5° C. (FIG. 6A), with 64% of the compound remaining at 1 hour. The plasma stability of CID-779754 is also good, with 79% remaining after incubating at 37.5° C. for 1 hour in fresh rat plasma (FIG. 6B).

With `CN(C)C1=C(Cl)C(=O)N(c2ccc(Cl)c(Cl)c2)C1=O` [CID-779754, 3-chloro-1-(3,4-dichlorophenyl)-4-(dimethylamino)-1H-pyrrole-2,5-dione] as the compound, how does the “Bfl-1 FP assay, activity in words” value (Bfl-1) read?
Its value is “binds reversibly and competes”.

What about the “Bfl-1 FP assay, activity in words” value (Bfl-1; listed as MLS-0067130) of the same compound?
The value was “equipotent with CID-1180676”.

And the IC50 (Bfl-1; Bfl-1 FP IC50 (uM), Tables 3-5)?
The IC50 was 0.46 µM.

And the solubility (Solubility)?
The solubility was no more than 100 µM.

What about the “compound remaining at 1 hour” value (Microsomal stability) of the same compound?
The value was 64%.

And the half-life (Microsomal stability; read-out: metabolic half life)?
Its half-life is greater than 1 h.
